Tests used:
Type in all cases: cell-based, human
[1] = tested on: Siso; experiment: alkaline Comet assay; details: 25 µM pentathiepin or 20 µM H2O2, 15 min, 0 °C
Source text: Next, the potential of the pentathiepins 1–6 to damage nuclear DNA was investigated in the cell lines HAP-1, HAP-1.KO.GPx1, and Siso, with different expression levels of GPx1 and CAT (see Figure 7), by Comet Assay (Figure 12) with representative images in the Supplementary Materials (Figure S48).
With this assay, the intensity of DNA damage can be assessed on the level of a single cell, in case of the alkaline version detecting both single and double strand breaks as well as alkali-labile sites. The method presented here is an adaptation of the protocol published by Olive and Banath and based on the distinct electrophoretic mobility of damaged and intact genomic DNA. The latter has a low mobility; does thus not migrate in the electric field; and remains in a nucleoid shape after lysis, referred to as the comet head. In contrast, when strand breaks are created, free charged ends emerge and increase the electrophoretic mobility, prompting DNA segments to drift away from the comet head, thereby forming the so-called comet tail. As descriptor of still intact genomic DNA, the percentage of DNA in the comet head was selected. Per condition, 50,000 cells of either Siso, HAP-1, or HAP-1.KO.GPx1 were diluted in 1 mL of PBS and subsequently treated with either a 1% DMF aqueous solution as negative control, 20 µM of H2O2 as positive control, or 25 µM of pentathiepin for 15 min on ice to impair intracellular DNA repair mechanisms. Afterwards, 400 µL of the cell suspension was blended with 1.2 mL of a 1% low melting point agarose solution (40 °C) and smoothly distributed on agarose-precoated glass slides. Polymerization was finished after 3 min at RT, and the slides were horizontally submerged in alkaline lysis buffer (1.2 M NaCl, 0.1% N-lauryl-sarcosinate, 0.1 M Na-EDTA, 0.26 M NaOH) before storing them at 4 °C overnight. The slides were then rinsed three times in rinse/electrophoresis buffer (0.002 M Na-EDTA, 0.03 M NaOH) before electrophoretic separation was performed for 25 min at 0.6 V/cm. A neutralization step by adding distilled water was followed by staining the slides with 250 µL of an aqueous 10 µg/mL PI solution for 20 min. For visualization and image capturing, a DMi8 fluorescent microscope and LASX software (Leica Microsystems, Wetzlar, Germany) were used, and the comets scored with the help of CometScore2.0 (rexhoover.com). Per condition and replicate, at least 100 comets were analyzed to calculate a mean level of damage.

[2] = tested on: Siso; experiment: annexin V-FITC/PI apoptosis assay; details: IC90, 24 h
Method: (§1) As reported in our earlier publication, a representative pentathiepin was capable of inducing apoptosis in cancer cell lines. Here, we tested compounds 1–6 for their ability to trigger this particular modality of cell death in a subset of four cell lines: HAP-1, HAP-1.KO.GPx1, A2780, and Siso. A flow cytometric assay was performed, allowing us to discriminate between viable, early, and late apoptotic cells (representative dot plots can be found in Figure S47). FITC-labeled annexin V was used to assess the externalization of phosphatidyl serine as a hallmark of early apoptosis induction. The addition of propidium iodide (PI) enabled the detection of late apoptotic cells as it only permeates porous cell membranes and exerts fluorescence once bound to double-stranded DNA.
(§2) The annexin V-FITC/PI assay, which discriminates between viable, early, and late apoptotic cells within a sample population, was performed according to the manufacturer’s instructions (Miltenyi Biotec, Teterow, Germany). Briefly, 125,000 cells were seeded in 2 mL per well of a 6-well plate, allowed to adhere overnight, and subsequently treated with the respective pentathiepin (IC90, see Table S4) diluted in 3 mL of medium. After incubation periods of 6, 24, or 48 h, the cells were harvested, washed with the provided binding buffer, and stained with the annexin V-FITC reagent for 20 min at room temperature (RT) in the dark. After another washing step, the pellet was resuspended, and PI was added immediately before flow cytometric measurement at λEx/Em = 488/525 ± 50 nm for FITC and λEx/Em = 488/655–730 nm for PI with the MACSquant Analyzer 10 (Miltenyi Biotec, Teterow, Germany).

[3] = tested on: HAP-1; experiment: annexin V-FITC/PI apoptosis assay; details: IC90, 24 h
Method: as §1, §2

[4] = tested on: YAPC; experiment: DCFDA flow cytometric ROS assay, acute; details: 25 µM, 15 min
Method: According to the hypothesized mechanism of action (see Figure 3), pentathiepins can create oxidative stress via generation of reactive sulfur precursors. We have previously reported that a representative pentathiepin can increase the intracellular levels of ROS in two cancer cell lines. This effect was thus further evaluated with the new compounds in seven cell lines (Figure 8). The cells were incubated for 15 min with 25.0 µM pentathiepin and subsequently analyzed by using the intracellular ROS sensor 2′,7′-dichlorodihydrofluorescein diacetate (DCFDA) by flow cytometry.
In order to quantify intracellular ROS, we performed a flow cytometric assay based on the ROS-sensor 2′,7′-dichlorofluorescein diacetate (DCFDA). For acute effects of pentathiepins on intracellular ROS levels, the cells were stained with DCFDA first and subsequently incubated with 25 µM of compound for 10 min. […] Per condition, 250,000 cells were seeded in 2 mL of medium per well of a 6-well plate and allowed to adhere overnight. For measurement of acute ROS, the cells were stained with 1 mL of a 20 µM DCFDA-PBS solution for 30 min under standard incubation conditions. Afterwards, the solution was discarded, and the monolayer washed twice with 1 mL of PBS before 3 mL of medium containing 25 µM of pentathiepin was added for 10 min at 37 °C. After removing the solution and washing again with PBS, the cells were detached by using 0.5 mL of a diluted trypsin/EDTA-PBS solution (25%) and harvested with 1 mL of culture medium by carefully rinsing the wells. The cell suspension was transferred to 1.5 mL tubes, centrifuged for 5 min at 500× g, and washed with 1 mL of PBS. After removing the supernatant, each pellet was resuspended in 0.5 mL of PBS for measurement via the MACSquant Analyzer 10 at λEx/Em = 488/530 nm. Relative ROS levels resulting from treatment with pentathiepin were calculated by relating the fluorescence intensity of treated samples to the negative control. For the experiments covering periods of 24 and 48 h, the cells were incubated with the compounds first and stained with DCFDA afterwards. To assess the influence of additional GSH, we included 3 or 30 µM GSH to the medium containing 25 µM of pentathiepin, and the protocol was followed as described.

CCOc1c2c(c3ccc(C(=O)N4CCCCC4)cn13)SSSSS2 [Compound 2, (6-Ethoxy-[1,2,3,4,5]pentathiepino[6,7-a]indolizin-9-yl)(piperidinyl)methanone]
intact genomic DNA (Comet head) [1]: 30%

CCOc1c2c(c3ccc(C(=O)N4CCOCC4)cn13)SSSSS2 [Compound 3, (6-Ethoxy-[1,2,3,4,5]pentathiepino[6,7-a]indolizin-9-yl)(morpholino)methanone]
early apoptotic cells [2]: about 20% | late apoptotic cells [2]: about 20% | late apoptotic cells [3]: up to 12%

CCOc1c2c(c3ccc(C(=O)N4CCN(C(=O)c5ccc(F)cc5)CC4)cn13)SSSSS2 [Compound 5, (6-Ethoxy-[1,2,3,4,5]pentathiepino[6,7-a]indolizin-9-yl)(4-(4-fluorobenzoyl)piperazinyl)methanone]
intracellular ROS levels [4]: the only increase was monitored after incubation with 5

From article PMC8305076, “Comprehensive Evaluation of Biological Effects of Pentathiepins on Various Human Cancer Cell Lines and Insights into Their Mode of Action” (International Journal of Molecular Sciences, 2021)
